Laboratory results reported in ChEMBL document CHEMBL1201862, “PubChem BioAssay data set” (2004).
The source made the active and inactive calls.

Assays:
[1] = target: T1, Fatty acid synthase (Homo sapiens, UniProt P49327); assay: inhibition of human FAS-TE enzyme activity – biochemical, endpoint fluorescence intensity, uHTS hits, dose response (AID 624327); type: functional;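 further: fluorescence from hydrolysis of an O-methyl fluorescein acyl ester substrate by the enzyme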
[2] = target: T1, Fatty acid synthase; assay: inhibition of human FAS-TE enzyme activity – biochemical, kinetic fluorescence intensity, dose response (AID 624326); type: functional;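 further: rate of fluorescence rise from hydrolysis of a fluorogenic O-methyl fluorescein ester substrate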
[3] = target: T2, Polyadenylate-binding protein 1 (Homo sapiens, UniProt P11940); assay: MLLE binding blockers, Cy5 peptide tracer – biochemical, fluorescence polarization, Cy5-PAM2 peptide, secondary, miRNA deadenylation inhibitor project, dose response (AID 602260); type: functional; settings: read-out: IC50_Mean
T2 sequence (P11940 whole entry, the tested form may be a part): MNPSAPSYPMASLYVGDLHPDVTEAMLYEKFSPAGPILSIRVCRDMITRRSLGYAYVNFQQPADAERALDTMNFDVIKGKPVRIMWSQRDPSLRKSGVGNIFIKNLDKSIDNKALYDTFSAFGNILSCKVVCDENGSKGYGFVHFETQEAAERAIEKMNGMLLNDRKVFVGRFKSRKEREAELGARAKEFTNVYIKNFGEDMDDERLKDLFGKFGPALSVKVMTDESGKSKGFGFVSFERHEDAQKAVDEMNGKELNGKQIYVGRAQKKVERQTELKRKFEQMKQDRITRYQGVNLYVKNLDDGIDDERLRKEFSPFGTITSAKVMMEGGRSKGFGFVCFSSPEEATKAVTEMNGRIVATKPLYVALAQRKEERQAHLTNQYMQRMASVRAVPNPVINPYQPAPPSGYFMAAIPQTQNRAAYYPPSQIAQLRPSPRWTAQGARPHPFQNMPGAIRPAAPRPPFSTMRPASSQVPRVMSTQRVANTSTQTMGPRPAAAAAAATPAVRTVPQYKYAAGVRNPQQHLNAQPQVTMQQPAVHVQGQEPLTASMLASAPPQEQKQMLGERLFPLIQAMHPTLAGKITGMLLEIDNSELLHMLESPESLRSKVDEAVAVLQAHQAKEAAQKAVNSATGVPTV

[4] = target: T2, Polyadenylate-binding protein 1; assay: MLLE domain peptide-binding blockers, IC50 – biochemical, fluorescence polarization, FITC-PAM2 peptide, dose response (AID 602259); type: functional; settings: read-out: IC50_Mean
[5] = target: Nonstructural protein 1 (Influenza A virus, UniProt Q194T2); type: functional, Influenza A virus (A/California/07/2009(H1N1))
Sequence of Nonstructural protein 1 (Q194T2 whole entry): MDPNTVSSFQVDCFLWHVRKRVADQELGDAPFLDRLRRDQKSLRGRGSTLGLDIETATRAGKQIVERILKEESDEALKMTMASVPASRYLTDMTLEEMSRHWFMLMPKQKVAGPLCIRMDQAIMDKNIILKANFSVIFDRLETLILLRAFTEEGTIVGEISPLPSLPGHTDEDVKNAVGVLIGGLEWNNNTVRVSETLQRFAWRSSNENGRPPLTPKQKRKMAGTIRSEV

[6] = target: T3, Replicative DNA helicase DnaB (Mycobacterium tuberculosis, UniProt P9WMR3); assay: DnaB intein splicing inhibitors, dose response, biochemical, cell-free fluorescence (AID 449749); type: functional
T3 sequence (P9WMR3 whole entry): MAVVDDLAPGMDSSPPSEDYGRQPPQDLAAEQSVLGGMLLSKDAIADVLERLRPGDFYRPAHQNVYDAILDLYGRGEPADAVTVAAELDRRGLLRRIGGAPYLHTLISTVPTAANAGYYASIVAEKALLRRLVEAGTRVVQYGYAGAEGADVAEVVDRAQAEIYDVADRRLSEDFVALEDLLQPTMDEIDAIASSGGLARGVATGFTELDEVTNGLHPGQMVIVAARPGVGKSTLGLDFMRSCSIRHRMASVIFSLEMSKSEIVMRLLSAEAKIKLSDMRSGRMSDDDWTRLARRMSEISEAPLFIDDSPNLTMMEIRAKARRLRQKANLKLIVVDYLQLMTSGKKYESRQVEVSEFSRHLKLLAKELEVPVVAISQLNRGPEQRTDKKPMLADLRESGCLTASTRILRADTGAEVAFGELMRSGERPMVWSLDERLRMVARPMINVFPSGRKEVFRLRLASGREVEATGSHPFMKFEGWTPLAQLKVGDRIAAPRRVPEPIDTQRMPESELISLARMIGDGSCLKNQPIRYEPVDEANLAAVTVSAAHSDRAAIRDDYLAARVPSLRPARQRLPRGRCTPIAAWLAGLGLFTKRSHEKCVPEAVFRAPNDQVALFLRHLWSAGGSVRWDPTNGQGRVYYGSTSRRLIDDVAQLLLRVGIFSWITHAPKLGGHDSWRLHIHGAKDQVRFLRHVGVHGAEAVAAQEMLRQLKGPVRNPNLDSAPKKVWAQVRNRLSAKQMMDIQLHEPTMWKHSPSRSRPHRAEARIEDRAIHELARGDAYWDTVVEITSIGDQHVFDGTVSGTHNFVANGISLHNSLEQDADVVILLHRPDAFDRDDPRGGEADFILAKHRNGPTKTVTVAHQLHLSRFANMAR

[7] = target: T4, Protein RecA (Mycobacterium tuberculosis, UniProt P9WHJ3); assay: Fluorescence Cell-Free Homogeneous Dose Retest to Identify Inhibitors of RecA-Intein Splicing Activity. [Related pubchem assays (depositor defined):AID2097, AID2223, AID489010, AID492950]; type: functional
T4 sequence (P9WHJ3 whole entry): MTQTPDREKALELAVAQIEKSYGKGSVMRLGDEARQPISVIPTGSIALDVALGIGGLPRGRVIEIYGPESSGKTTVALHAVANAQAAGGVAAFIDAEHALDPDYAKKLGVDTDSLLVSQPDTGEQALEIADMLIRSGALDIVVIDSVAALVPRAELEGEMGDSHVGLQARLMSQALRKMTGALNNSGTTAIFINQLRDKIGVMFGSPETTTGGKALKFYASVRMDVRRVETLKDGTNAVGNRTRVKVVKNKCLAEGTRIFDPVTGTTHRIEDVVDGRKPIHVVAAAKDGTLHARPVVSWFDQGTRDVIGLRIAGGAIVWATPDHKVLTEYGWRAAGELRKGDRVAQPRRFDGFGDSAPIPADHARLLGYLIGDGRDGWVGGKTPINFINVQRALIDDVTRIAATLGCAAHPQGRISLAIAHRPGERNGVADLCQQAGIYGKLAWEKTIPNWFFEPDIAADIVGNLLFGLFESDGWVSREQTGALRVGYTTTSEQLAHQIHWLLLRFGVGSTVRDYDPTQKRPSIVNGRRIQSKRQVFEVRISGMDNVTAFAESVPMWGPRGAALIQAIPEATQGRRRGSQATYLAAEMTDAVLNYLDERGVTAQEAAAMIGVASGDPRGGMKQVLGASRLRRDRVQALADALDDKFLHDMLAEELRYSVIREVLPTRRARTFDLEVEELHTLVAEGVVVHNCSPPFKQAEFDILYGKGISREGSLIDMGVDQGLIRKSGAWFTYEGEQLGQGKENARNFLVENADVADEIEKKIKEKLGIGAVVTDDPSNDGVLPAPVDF

[8] = target: T5, RNA-binding protein pos-1 (Caenorhabditis elegans, UniProt G5EF15); assay: disruptors of C. elegans POS-1 RNA interaction – biochemical, fluorescence polarization, dose response (AID 1964);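 further: purified POS-1 fused to maltose binding protein made in E. coli; potency of compounds blocking POS-1 binding to fluorescent RNA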
T5 sequence (G5EF15 whole entry): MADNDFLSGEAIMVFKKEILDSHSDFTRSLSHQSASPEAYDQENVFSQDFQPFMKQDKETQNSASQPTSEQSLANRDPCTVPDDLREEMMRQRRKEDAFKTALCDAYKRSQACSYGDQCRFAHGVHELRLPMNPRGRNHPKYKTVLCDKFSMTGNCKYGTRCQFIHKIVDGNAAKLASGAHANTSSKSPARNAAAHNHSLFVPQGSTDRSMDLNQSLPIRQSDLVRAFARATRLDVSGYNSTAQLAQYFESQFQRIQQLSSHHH

[9] = target: T6, Zinc finger protein mex-5 (Caenorhabditis elegans, UniProt Q9XUB2); assay: potency of MEX-5 RNA-binding blockers – biochemical, C. elegans, fluorescence polarization, dose response (AID 1960)
T6 sequence (Q9XUB2 whole entry): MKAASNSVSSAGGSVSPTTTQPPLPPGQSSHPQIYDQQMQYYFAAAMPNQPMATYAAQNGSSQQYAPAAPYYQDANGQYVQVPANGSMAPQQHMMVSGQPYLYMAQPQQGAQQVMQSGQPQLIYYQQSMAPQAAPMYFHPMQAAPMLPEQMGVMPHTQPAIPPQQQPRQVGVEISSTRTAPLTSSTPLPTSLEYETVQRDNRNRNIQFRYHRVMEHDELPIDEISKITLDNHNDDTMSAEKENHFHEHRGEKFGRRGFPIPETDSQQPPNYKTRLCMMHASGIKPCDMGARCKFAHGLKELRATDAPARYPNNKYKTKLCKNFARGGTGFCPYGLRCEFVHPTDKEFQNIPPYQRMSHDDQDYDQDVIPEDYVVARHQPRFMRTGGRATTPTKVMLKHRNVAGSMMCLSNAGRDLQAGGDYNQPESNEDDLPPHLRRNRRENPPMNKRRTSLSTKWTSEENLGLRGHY

[10] = P. falciparum Dd2 growth inhibitors, dose response, SYBR Green, cherry-picked samples (AID 1159567); type: functional, cell-based

T1 sequence (P49327 whole entry): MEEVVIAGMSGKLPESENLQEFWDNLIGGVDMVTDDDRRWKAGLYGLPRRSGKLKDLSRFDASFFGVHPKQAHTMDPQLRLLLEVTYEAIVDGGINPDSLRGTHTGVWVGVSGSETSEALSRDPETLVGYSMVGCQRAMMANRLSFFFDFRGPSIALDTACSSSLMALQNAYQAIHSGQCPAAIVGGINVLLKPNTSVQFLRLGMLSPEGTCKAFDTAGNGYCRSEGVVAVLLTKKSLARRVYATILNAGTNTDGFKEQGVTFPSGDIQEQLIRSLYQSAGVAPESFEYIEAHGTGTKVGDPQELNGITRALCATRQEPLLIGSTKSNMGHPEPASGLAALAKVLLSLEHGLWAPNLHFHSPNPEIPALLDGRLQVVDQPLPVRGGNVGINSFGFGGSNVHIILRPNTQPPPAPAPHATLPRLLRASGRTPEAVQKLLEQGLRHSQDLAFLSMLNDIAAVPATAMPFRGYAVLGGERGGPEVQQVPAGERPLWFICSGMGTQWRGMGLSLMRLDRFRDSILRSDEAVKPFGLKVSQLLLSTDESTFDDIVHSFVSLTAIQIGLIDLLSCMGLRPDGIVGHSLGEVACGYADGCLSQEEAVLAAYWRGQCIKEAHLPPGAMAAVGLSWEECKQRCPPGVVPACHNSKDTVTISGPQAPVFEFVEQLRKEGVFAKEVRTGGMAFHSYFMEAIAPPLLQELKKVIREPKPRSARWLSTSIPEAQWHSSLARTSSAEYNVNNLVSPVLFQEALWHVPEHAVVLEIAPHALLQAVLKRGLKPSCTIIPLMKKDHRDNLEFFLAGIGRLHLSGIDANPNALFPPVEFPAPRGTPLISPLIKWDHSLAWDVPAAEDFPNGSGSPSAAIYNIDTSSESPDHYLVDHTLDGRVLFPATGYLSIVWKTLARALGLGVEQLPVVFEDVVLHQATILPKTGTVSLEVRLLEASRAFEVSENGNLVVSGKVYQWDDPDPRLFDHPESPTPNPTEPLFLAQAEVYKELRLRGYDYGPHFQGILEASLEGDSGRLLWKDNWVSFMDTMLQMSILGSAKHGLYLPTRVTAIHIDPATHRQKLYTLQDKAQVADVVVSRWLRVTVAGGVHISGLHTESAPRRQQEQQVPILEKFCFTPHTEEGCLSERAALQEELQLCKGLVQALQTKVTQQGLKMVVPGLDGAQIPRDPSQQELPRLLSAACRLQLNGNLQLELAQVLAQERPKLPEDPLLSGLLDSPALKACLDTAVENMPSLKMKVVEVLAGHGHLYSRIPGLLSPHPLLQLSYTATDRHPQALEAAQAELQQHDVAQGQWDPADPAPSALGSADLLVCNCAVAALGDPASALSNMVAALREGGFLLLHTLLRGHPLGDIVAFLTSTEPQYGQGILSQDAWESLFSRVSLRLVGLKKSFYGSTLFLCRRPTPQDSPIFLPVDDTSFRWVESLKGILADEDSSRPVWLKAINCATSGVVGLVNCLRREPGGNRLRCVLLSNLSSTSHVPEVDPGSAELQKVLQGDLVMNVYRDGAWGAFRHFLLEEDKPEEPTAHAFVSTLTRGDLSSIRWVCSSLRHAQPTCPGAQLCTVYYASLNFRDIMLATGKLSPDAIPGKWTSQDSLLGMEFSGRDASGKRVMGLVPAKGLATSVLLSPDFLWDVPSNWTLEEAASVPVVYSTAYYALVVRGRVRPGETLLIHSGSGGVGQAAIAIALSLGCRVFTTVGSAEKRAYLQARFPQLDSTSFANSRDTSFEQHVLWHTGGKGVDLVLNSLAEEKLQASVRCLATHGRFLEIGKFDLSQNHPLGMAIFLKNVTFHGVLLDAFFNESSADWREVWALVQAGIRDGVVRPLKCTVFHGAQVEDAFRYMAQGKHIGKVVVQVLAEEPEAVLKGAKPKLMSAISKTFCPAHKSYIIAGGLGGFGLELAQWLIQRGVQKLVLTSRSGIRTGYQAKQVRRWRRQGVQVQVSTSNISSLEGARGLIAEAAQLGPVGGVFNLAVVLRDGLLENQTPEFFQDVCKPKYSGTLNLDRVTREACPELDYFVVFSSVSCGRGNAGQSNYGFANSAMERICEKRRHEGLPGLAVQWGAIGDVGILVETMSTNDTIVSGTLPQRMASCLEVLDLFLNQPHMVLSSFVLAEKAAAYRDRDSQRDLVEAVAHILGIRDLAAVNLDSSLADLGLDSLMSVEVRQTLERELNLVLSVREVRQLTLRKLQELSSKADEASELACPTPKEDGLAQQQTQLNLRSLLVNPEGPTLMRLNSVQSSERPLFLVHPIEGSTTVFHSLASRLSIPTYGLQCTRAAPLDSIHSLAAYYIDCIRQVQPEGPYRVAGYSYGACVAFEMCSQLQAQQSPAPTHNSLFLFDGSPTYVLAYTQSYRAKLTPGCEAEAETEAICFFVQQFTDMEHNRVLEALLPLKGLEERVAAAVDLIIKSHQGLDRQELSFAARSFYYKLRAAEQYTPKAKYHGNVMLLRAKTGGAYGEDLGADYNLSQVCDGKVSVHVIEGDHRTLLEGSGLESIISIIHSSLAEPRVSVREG

## CCN(C(=O)COC(=O)c1cc([N+](=O)[O-])ccc1N1CCOCC1)c1ccccc1
[1]
  IC50: 1.94 µM (active)
[2]
  IC50: 1.86 µM (active)

## C[C@H](O)[C@H](O)[C@H]1CNc2nc(N)[nH]c(=O)c2N1
[3]
  IC50: > 66 µM (inactive)
[4]
  IC50: > 66 µM (inactive)

## O=C1NC(=O)N2CCSC2(Cc2ccccc2)N1 (centres undefined)
[3]
  IC50: > 66 µM (inactive)
[4]
  IC50: > 66 µM (inactive)

## CCOC(=O)c1cnc(-n2[nH]c(C)c(Cc3ccccc3)c2=O)[nH]c1=O
[5]
  IC50: 3.4 µM (active)
[6]
  AC50: 9.77 µM (active)
[7]
  EC50: 5.99 µM (active)

## O=C(N/N=C\C1C(=O)NC(=S)N(c2ccccc2)C1=O)c1ccc(O)cc1 (centres undefined)
[8]
  EC50: > 300 µM (not active)
[9]
  EC50: 63.7 µM (active)
[5]
  IC50: 9.86 µM (active)

## CN1c2ccc(-c3cccc(F)c3)cc2[C@@H]2[C@@H](CCN2C(=O)C2CC2)[C@@H]1CO
[10]
  AC50: 16.8 µM (active)

## CCC(=O)N1CCC2(CC1)CN(Cc1ccc(Cl)cc1)[C@@H](CO)c1[nH]c3cc(OC)ccc3c12
[10]
  AC50: 3.79 µM (active)

## C[C@H]1CN([C@@H](C)CO)S(=O)(=O)c2ccc(C#Cc3ccncc3)cc2O[C@@H]1CN(C)S(=O)(=O)c1ccc(F)cc1
[10]
  AC50: 3.9 µM (active)

## CCC(=O)N1CCC2(CC1)CN(C(=O)Nc1ccc(F)cc1)[C@@H](CO)c1c2c2ccc(OC)cc2n1C
[10]
  AC50: 4.37 µM (active)

## COc1ccc2c3c(n(C)c2c1)[C@@H](CO)N(S(C)(=O)=O)CC31CCN(C(=O)CN(C)C)CC1
[10]
  AC50: 4.28 µM (active)

## CCCN(C)C[C@@H]1Oc2cc(C#Cc3ccccc3)ccc2S(=O)(=O)N([C@@H](C)CO)C[C@@H]1C
[10]
  AC50: 4.59 µM (active)

## O=C(C1CCCC1)N1CC(=O)N2[C@H](CO)[C@@H](c3ccc(C#CCc4ccccc4)cc3)[C@@H]2C1
[10]
  AC50: 6.57 µM (active)
